Usually Emax stands for the greatest response seen or fitted, relative to the assay's reference. One may read the EC50 as the concentration giving half of the maximal effect. The low end stands for higher potency in that assay, the high end for lower potency in that assay.

Assay in all cases: ERK1/2 phosphorylation
Common to all, as to assay type: cell-based

The target of one test is T1, hCTR F359A (Homo sapiens, UniProt P30988, F359A).
T1 construct: expressed in transfected cells
T1 sequence (P30988 25-474 F359A): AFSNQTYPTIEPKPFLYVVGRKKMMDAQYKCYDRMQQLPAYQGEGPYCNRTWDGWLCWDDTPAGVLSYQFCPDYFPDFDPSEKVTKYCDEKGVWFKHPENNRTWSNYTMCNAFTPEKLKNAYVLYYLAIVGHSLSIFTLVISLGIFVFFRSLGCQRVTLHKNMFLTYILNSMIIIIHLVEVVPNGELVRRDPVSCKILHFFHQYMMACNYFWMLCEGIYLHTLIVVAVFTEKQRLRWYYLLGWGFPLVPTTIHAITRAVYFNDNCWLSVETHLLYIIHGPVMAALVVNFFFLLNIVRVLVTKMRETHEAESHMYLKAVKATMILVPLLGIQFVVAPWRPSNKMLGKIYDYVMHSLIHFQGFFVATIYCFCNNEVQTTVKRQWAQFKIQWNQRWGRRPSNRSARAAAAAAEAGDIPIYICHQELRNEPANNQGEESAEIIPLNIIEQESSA
Particulars: for Emax: read-out: Emax (% WT); for EC50: pERK, hCTR F359A, CV1-FlpIn cells, three-parameter logistic fit, mean ± S.E.M. Put shortly: (§1)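 Read-out is phospho-ERK1/2, reported relative to the 10% FBS maximum taken at 6 min. Wells held 2.5 × 10^4 cells seeded the night before. Potency and efficacy reflect functional affinity, efficacy and stimulus-response coupling combined.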

The target in a further test is T2, hCTR K366A (Homo sapiens, UniProt P30988, K366A).
T2 construct: c-Myc (N); expressed in transfected cells
T2 sequence (P30988 25-474 K366A): T1 sequence (P30988 25-474 F359A) with A335F, K342A
Particulars: CV1-FlpIn cells, mean ± S.E.M.; for Emax: pERK maximal response; for EC50: pERK, three-parameter logistic fit. Summed up:
as §1

Another test has as its target T3, hCTR N365A (Homo sapiens, UniProt P30988, N365A).
T3 construct: c-Myc (N); expressed in transfected cells
T3 sequence (P30988 25-474 N365A): T1 sequence (P30988 25-474 F359A) with A335F, N341A
Particulars: CV1-FlpIn cells, mean ± S.E.M.; for Emax: pERK maximal response; for EC50: pERK, three-parameter logistic fit. Summed up:
as §1

Another test deals with T4, hCTR R362A (Homo sapiens, UniProt P30988, R362A).
T4 construct: expressed in transfected cells
T4 sequence (P30988 25-474 R362A): T1 sequence (P30988 25-474 F359A) with A335F, R338A
Particulars: CV1-FlpIn cells, mean ± S.E.M.; for Emax: pERK maximal response; for EC50: pERK, three-parameter logistic fit. Summed up:
as §1

The target in the next test is T5, hCTR Y372A (Homo sapiens, UniProt P30988, Y372A).
T5 construct: c-Myc (N); expressed in transfected cells
T5 sequence (P30988 25-474 Y372A): T1 sequence (P30988 25-474 F359A) with A335F, Y348A
Particulars: CV1-FlpIn cells, mean ± S.E.M.; for Emax: pERK maximal response. Summed up:
as §1

Changes are numbered by the printed parent chain. Where a SMILES comes first, the peptide text is derived from it. Bridges are numbered along the chain shown (N, C = ends).

Consider `CC[C@H](C)[C@H](NC(=O)[C@H](C)NC(=O)[C@@H](NC(=O)[C@H](CCC(N)=O)NC(=O)[C@@H]1CCCN1C(=O)[C@H](Cc1ccccc1)NC(=O)[C@@H](NC(=O)[C@H](Cc1c[nH]cn1)NC(=O)[C@H](Cc1ccccc1)NC(=O)[C@H](CCCCN)NC(=O)[C@H](CC(N)=O)NC(=O)[C@H](Cc1ccccc1)NC(=O)[C@H](CC(=O)O)NC(=O)[C@H](CCC(N)=O)NC(=O)[C@@H](NC(=O)[C@H](Cc1ccc(O)cc1)NC(=O)[C@@H](NC(=O)CNC(=O)[C@H](CC(C)C)NC(=O)[C@H](CCSC)NC(=O)[C@@H]1CSSC[C@H](N)C(=O)NCC(=O)N[C@@H](CC(N)=O)C(=O)N[C@@H](CC(C)C)C(=O)N[C@@H](CO)C(=O)N[C@@H]([C@@H](C)O)C(=O)N1)[C@@H](C)O)[C@@H](C)O)[C@@H](C)O)[C@@H](C)O)C(=O)NCC(=O)N[C@H](C(=O)NCC(=O)N[C@@H](C)C(=O)N1CCC[C@H]1C(N)=O)C(C)C` [hCT], for which the Emax is 153 ± 8% on hCTR F359A; 186 ± 16% on hCTR K366A; 93 ± 6% on hCTR N365A; 64 ± 7% at hCTR R362A; 46 ± 4% at hCTR Y372A.
Regarding `CC(C)C[C@H](NC(=O)CNC(=O)[C@H](C)NC(=O)[C@H](CC(C)C)NC(=O)[C@H](CCCNC(=N)N)NC(=O)[C@H](Cc1cnc[nH]1)NC(=O)[C@@H](NC(=O)[C@@H](NC(=O)[C@@H]1CSSC[C@H](NC(=O)[C@H](C)N)C(=O)N[C@@H](CC(=O)O)C(=O)N[C@@H]([C@@H](C)O)C(=O)N[C@@H](C)C(=O)N[C@@H]([C@@H](C)O)C(=O)N1)C(C)C)[C@@H](C)O)C(=O)N[C@@H](CC(C)C)C(=O)N[C@@H](CO)C(=O)N[C@@H](CCCNC(=N)N)C(=O)N[C@@H](CO)C(=O)NCC(=O)NCC(=O)N[C@H](C(=O)N[C@H](C(=O)N[C@@H](CCCCN)C(=O)N[C@@H](CC(N)=O)C(=O)N[C@@H](CC(N)=O)C(=O)N[C@@H](Cc1ccccc1)C(=O)N[C@H](C(=O)N1CCC[C@H]1C(=O)N[C@H](C(=O)N[C@@H](CC(N)=O)C(=O)N[C@H](C(=O)NCC(=O)N[C@@H](CO)C(=O)N[C@@H](CCCCN)C(=O)N[C@@H](C)C(=O)N[C@@H](Cc1ccccc1)C(N)=O)C(C)C)[C@@H](C)O)C(C)C)C(C)C)C(C)C` [hαCGRP], the EC50 is 6.31 nM at hCTR F359A, 40.7 nM on hCTR K366A, 30.2 nM at hCTR N365A and 112 nM at hCTR R362A. Also, the Emax on hCTR K366A is 146 ± 17%; at hCTR N365A, 52 ± 8%; at hCTR R362A, 31 ± 8%.
Regarding `CSCC[C@H](NC(=O)CNC(=O)[C@H](CO)NC(=O)[C@H](Cc1ccccc1)NC(=O)[C@H](CCCNC(=N)N)NC(=O)[C@H](Cc1c[nH]cn1)NC(=O)[C@H](Cc1ccccc1)NC(=O)[C@H](CC(N)=O)NC(=O)[C@H](CC(N)=O)NC(=O)[C@H](CC(C)C)NC(=O)[C@H](CC(N)=O)NC(=O)[C@H](CCCNC(=N)N)NC(=O)[C@H](Cc1c[nH]c2ccccc12)NC(=O)[C@H](Cc1ccc(O)cc1)NC(=O)[C@H](C)NC(=O)[C@H](CO)NC(=O)[C@H](CC(C)C)NC(=O)[C@@H](NC(=O)[C@@H]1CSSC[C@H](N)C(=O)N[C@@H](CO)C(=O)N[C@@H](CC(N)=O)C(=O)N[C@@H](CC(C)C)C(=O)N[C@@H](CO)C(=O)N[C@@H]([C@@H](C)O)C(=O)N1)C(C)C)C(=O)NCC(=O)N[C@@H](Cc1ccccc1)C(=O)NCC(=O)N1CCC[C@H]1C(=O)N[C@@H](CCC(=O)O)C(=O)N[C@H](C(=O)N1CCC[C@H]1C(N)=O)[C@@H](C)O` [pCT] (H-CSNLSTCVLSAYWRNLNNFHRFSGMGFGPETP-NH2; disulfide 1-7), the EC50 at hCTR F359A was 6.31 nM; on hCTR K366A, 1.91 nM; on hCTR N365A, 1.62 nM; on hCTR R362A it was 7.59 nM; at hCTR Y372A (pERK, three-parameter logistic fit), 19.1 nM. Moreover, the Emax amounted to 156 ± 9% at hCTR K366A, 98 ± 10% at hCTR N365A, 45 ± 4% on hCTR R362A and 26 ± 4% on hCTR Y372A.
As to `CC(C)C[C@H](NC(=O)[C@H](CC(N)=O)NC(=O)[C@H](CC(N)=O)NC(=O)[C@H](CO)NC(=O)[C@H](CO)NC(=O)[C@H](CCCNC(=N)N)NC(=O)[C@@H](NC(=O)[C@H](CC(C)C)NC(=O)[C@H](Cc1ccccc1)NC(=O)[C@H](CC(N)=O)NC(=O)[C@H](C)NC(=O)[C@H](CC(C)C)NC(=O)[C@H](CCCNC(=N)N)NC(=O)[C@H](CCC(N)=O)NC(=O)[C@@H](NC(=O)[C@H](C)NC(=O)[C@@H]1CSSC[C@H](NC(=O)[C@@H](N)CCCCN)C(=O)N[C@@H](CC(N)=O)C(=O)N[C@@H]([C@@H](C)O)C(=O)N[C@@H](C)C(=O)N[C@@H]([C@@H](C)O)C(=O)N1)[C@@H](C)O)C(C)C)C(=O)NCC(=O)N1CCC[C@H]1C(=O)N[C@H](C(=O)N[C@@H](CC(C)C)C(=O)N1CCC[C@H]1C(=O)N1CCC[C@H]1C(=O)N[C@H](C(=O)N[C@@H](CC(N)=O)C(=O)N[C@H](C(=O)NCC(=O)N[C@@H](CO)C(=O)N[C@@H](CC(N)=O)C(=O)N[C@H](C(=O)N[C@@H](Cc1ccc(O)cc1)C(N)=O)[C@@H](C)O)C(C)C)[C@@H](C)O)C(C)C` [rAmy], the Emax at hCTR F359A is 58 ± 11%; at hCTR K366A, 84 ± 11%; at hCTR N365A, 63 ± 10%; at hCTR R362A, 36 ± 7%.
For the compound `CC(C)C[C@H](NC(=O)[C@H](CCCCN)NC(=O)CNC(=O)[C@H](CC(C)C)NC(=O)[C@@H](NC(=O)[C@@H]1CSSC[C@H](N)C(=O)N[C@@H](CO)C(=O)N[C@@H](CC(N)=O)C(=O)N[C@@H](CC(C)C)C(=O)N[C@@H](CO)C(=O)N[C@@H]([C@@H](C)O)C(=O)N1)C(C)C)C(=O)N[C@@H](CO)C(=O)N[C@@H](CCC(N)=O)C(=O)N[C@@H](CCC(=O)O)C(=O)N[C@@H](CC(C)C)C(=O)N[C@@H](Cc1c[nH]cn1)C(=O)N[C@@H](CCCCN)C(=O)N[C@@H](CC(C)C)C(=O)N[C@@H](CCC(N)=O)C(=O)N[C@H](C(=O)N[C@@H](Cc1ccc(O)cc1)C(=O)N1CCC[C@H]1C(=O)N[C@@H](CCCNC(=N)N)C(=O)N[C@H](C(=O)N[C@@H](CC(N)=O)C(=O)N[C@H](C(=O)NCC(=O)N[C@@H](CO)C(=O)NCC(=O)N[C@H](C(=O)N1CCC[C@H]1C(N)=O)[C@@H](C)O)[C@@H](C)O)[C@@H](C)O)[C@@H](C)O` [sCT], the Emax on hCTR F359A was determined as 186 ± 7%; on hCTR K366A it was 136 ± 5%; on hCTR N365A, 84 ± 3%; on hCTR R362A it was 107 ± 10%; on hCTR Y372A, 39 ± 3%.

For the origin of these results see publication PMC5908784, “Extracellular loops 2 and 3 of the calcitonin receptor selectively modify agonist binding and efficacy” (Biochemical Pharmacology, 2018).
